Measured values published in patent publication US10815238B2, “Antimicrobial compounds and methods of making and using the same” (BIOVERSYS AG, priority 2013, dated 2020).
Like-named read-outs stand apart in the source and are kept apart here.

Tests used:
[1] = system: Eschericia coli (E. coli) strain ATCC25922; test: Standard microdilution assay, MIC against E. coli ATCC25922; type: cell-based; details: Escherichia coli
How it was run: (§1)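 Scoring as + or − used a 16 micrograms/mL cutoff on minimum inhibitory concentrations. These came from CLSI-standard microdilution, quality-controlled with reference strains tested in the same run.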

[2] = system: Staphylococcus aureus (S. aureus) 11540 strain; test: Standard microdilution assay, MIC against S. aureus 11540; type: cell-based; details: read-out: MIC S. aureus
How it was run: as §1

[3] = E. coli strain ATCC25922, standard microdilution assay, cutoff 16 micrograms/mL, read-out: MIC E. Coli
[4] = S. aureus 11540 strain, standard microdilution assay, cutoff 16 micrograms/mL

C[C@H](N)CCCc1cc(Cl)c(F)c(-c2cc3cn(-c4ccc(C(=O)NCCCNC(=N)N)cc4)c(=O)nc3[nH]2)c1 [Compound 459]
MIC [1, 3]: < 16 µg/mL
MIC [2, 4]: < 16 µg/mL

C[C@H](N)CCCc1cc(Cl)c(F)c(-c2cc3cn(-c4ccc([C@@H]5CCC[C@@H](CCNC(N)=O)N5)cc4)c(=O)nc3[nH]2)c1 [Compound 510]
MIC [1, 3]: > 16 µg/mL
MIC [2, 4]: > 16 µg/mL

C[C@H](N)CCCc1cc(Cl)c(F)c(-c2cc3cn(-c4ccc([C@@H](N)CCNC(=N)N)cc4)c(=O)nc3[nH]2)c1 [Compound 427]
MIC [1, 3]: < 16 µg/mL
MIC [2, 4]: < 16 µg/mL

C[C@H](N)CCCc1cc(Cl)c(F)c(-c2cc3cn(-c4ccc([C@H]5COC[C@@H](CO)N5)cc4)c(=O)nc3[nH]2)c1 [Compound 390]
MIC [1, 3]: > 16 µg/mL
MIC [2, 4]: > 16 µg/mL

C[C@H](N)CCCc1cc(-c2cc3cn(-c4ccc([C@@H]5CCC[C@@H](CCNC(=N)N)N5)cc4)c(=O)nc3[nH]2)cc(C(F)(F)F)c1 [Compound 486]
MIC [1, 3]: < 16 µg/mL
MIC [2, 4]: < 16 µg/mL

C[C@H](N)CCCc1cc(OC(F)(F)F)c(F)c(-c2cc3cn(-c4ccc(CN[C@H](C)C[C@@H](CN)NC(=N)N)cc4)c(=O)nc3[nH]2)c1 [Compound 402]
MIC [1, 3]: < 16 µg/mL
MIC [2, 4]: < 16 µg/mL

C[C@H](N)CCCc1cc(Cl)c(F)c(-c2cc3cn(-c4ccc([C@H]5COC[C@@H](CNC(=N)N)N5)cc4)c(=O)nc3[nH]2)c1 [Compound 451]
MIC [1, 3]: < 16 µg/mL
MIC [2, 4]: < 16 µg/mL

C[C@H](N)CCCc1cc(OC(F)(F)F)c(F)c(-c2cc3cn(-c4ccc(C(N)CNC(=N)N)cc4)c(=O)nc3[nH]2)c1 (some centres unmarked) [Compound 474]
MIC [1, 3]: < 16 µg/mL
MIC [2, 4]: < 16 µg/mL

C[C@H](N)CCCc1cc(Cl)c(F)c(-c2cc3cn(-c4ccc([C@@H]5CCC[C@@H](Cc6nnc[nH]6)N5)cc4)c(=O)nc3[nH]2)c1 [Compound 496]
MIC [1, 3]: > 16 µg/mL
MIC [2, 4]: > 16 µg/mL

C[C@H](N)CCCc1cc(Cl)c(F)c(-c2cc3cn(-c4ccc([C@@H](N)CCCN)cc4)c(=O)nc3[nH]2)c1 [Compound 410]
MIC [1, 3]: < 16 µg/mL
MIC [2, 4]: < 16 µg/mL

C[C@H](N)CCCc1cc(Cl)c(F)c(-c2cc3cn(-c4ccc([C@@H]5CCC[C@@H](CCC(=O)O)N5)cc4)c(=O)nc3[nH]2)c1 [Compound 514]
MIC [1, 3]: > 16 µg/mL
MIC [2, 4]: > 16 µg/mL

C[C@H](NCCCNC(=N)N)c1ccc(-n2cc3cc(-c4cc(CCC[C@@H](N)COP(=O)(Oc5ccccc5)Oc5ccccc5)cc(Cl)c4F)[nH]c3nc2=O)cc1 [Compound 488]
MIC ([1]; ATCC25922, read-out: MIC E. Coli): < 16 µg/mL
MIC [2]: < 16 µg/mL

C[C@H](N)CCCc1cc(Cl)c(F)c(-c2cc3cn(-c4ccc(CN[C@H](CCNC(=N)N)CNS(C)(=O)=O)cc4)c(=O)nc3[nH]2)c1 [Compound 544]
MIC [1, 3]: < 16 µg/mL
MIC [2, 4]: < 16 µg/mL

C[C@H](N)CCCc1cc(Cl)c(F)c(-c2cc3cn(-c4ccc([C@@H]5COC[C@@H](CNC(=N)N)N5)cc4)c(=O)nc3[nH]2)c1 [Compound 465]
MIC [1, 3]: < 16 µg/mL
MIC [2, 4]: < 16 µg/mL

C=C[C@@H](C[C@@H](C)NCc1ccc(-n2cc3cc(-c4cc(CCC[C@H](C)N)cc(Cl)c4F)[nH]c3nc2=O)cc1)NC(=N)N [Compound 373]
MIC [1, 3]: < 16 µg/mL
MIC [2, 4]: < 16 µg/mL

C[C@H](N)CCCc1cc(Cl)c(F)c(-c2cc3cn(-c4ccc([C@H]5CCC[C@H](CCNc6ncc[nH]6)N5)cc4)c(=O)nc3[nH]2)c1 [Compound 542]
MIC [1, 3]: < 16 µg/mL
MIC [2, 4]: < 16 µg/mL

C[C@H](N)CCCc1cc(Cl)c(F)c(-c2cc3cn(-c4ccc(C(=N)N)cc4)c(=O)nc3[nH]2)c1 [Compound 566]
MIC [1, 3]: > 16 µg/mL
MIC [2, 4]: < 16 µg/mL

C[C@H](N)CCCc1cc(OC(F)(F)F)c(F)c(-c2cc3cn(-c4ccc([C@H](N)CCN)cc4)c(=O)nc3[nH]2)c1 [Compound 441]
MIC [1, 3]: < 16 µg/mL
MIC [2, 4]: < 16 µg/mL

C[C@H](N)CCCc1cc(Cl)c(F)c(-c2cc3cn(-c4ccc([C@@H]5CCC[C@@H](CCC6CC6)N5)cc4)c(=O)nc3[nH]2)c1 [Compound 532]
MIC [1, 3]: > 16 µg/mL
MIC [2, 4]: < 16 µg/mL

COC[C@H](CCN[C@@H](C)c1ccc(-n2cc3cc(-c4cc(CCC[C@H](C)N)cc(Cl)c4F)[nH]c3nc2=O)cc1)NC(=N)N [Compound 345]
MIC [1, 3]: < 16 µg/mL
MIC [2, 4]: < 16 µg/mL

C[C@H](N)CCCc1cc(Cl)c(F)c(-c2cc3cn(-c4ccc([C@H](C)N(C=O)CCCNC(=N)N)cc4)c(=O)nc3[nH]2)c1 [Compound 400]
MIC [1, 3]: < 16 µg/mL
MIC [2, 4]: < 16 µg/mL

C[C@H](N)CCCc1cc(Cl)c(F)c(-c2cc3cn(-c4ccc(CN[C@H](CCNC(=N)N)Cn5ccnn5)cc4)c(=O)nc3[nH]2)c1 [Compound 499]
MIC [1, 3]: < 16 µg/mL
MIC [2, 4]: < 16 µg/mL

C[C@H](N)CCCc1cc(Cl)c(F)c(-c2cc3cn(-c4ccc(C5(CCNC(=N)N)CNC5)cc4)c(=O)nc3[nH]2)c1 [Compound 434]
MIC [1, 3]: < 16 µg/mL
MIC [2, 4]: < 16 µg/mL

COC[C@@H](CCNC(=N)N)NCc1ccc(-n2cc3cc(-c4cc(CCC[C@@H](N)CO)cc(Cl)c4F)[nH]c3nc2=O)cc1 [Compound 378]
MIC [1, 3]: < 16 µg/mL
MIC [2, 4]: < 16 µg/mL

C[C@H](N)CCN1CCC(c2cc3cn(-c4ccc([C@@H]5CCC[C@@H](CCNC(=N)N)N5)cc4)c(=O)nc3[nH]2)C1 (some centres unmarked) [Compound 579]
MIC [1, 3]: < 16 µg/mL
MIC [2, 4]: < 16 µg/mL

C[C@H](N)CCCc1cc(Cl)c(F)c(-c2cc3cn(-c4ccc(C5(CCNC(=N)N)CN(C(=N)N)C5)cc4)c(=O)nc3[nH]2)c1 [Compound 404]
MIC [1, 3]: < 16 µg/mL
MIC [2, 4]: < 16 µg/mL

C[C@H](N)CCCc1cc(Cl)c(F)c(-c2cc3cn(-c4ccc([C@@H]5CC(CCN)CN5)cc4)c(=O)nc3[nH]2)c1 (some centres unmarked) [Compound 406]
MIC [1, 3]: < 16 µg/mL
MIC [2, 4]: < 16 µg/mL

C[C@H](N)CCCc1cc(Cl)c(F)c(-c2cc3cn(-c4ccc([C@@H]5CCC[C@@H](Cc6cnn[nH]6)N5)cc4)c(=O)nc3[nH]2)c1 [Compound 489]
MIC [1, 3]: > 16 µg/mL
MIC [2, 4]: > 16 µg/mL

C[C@H](N)CCCc1cc(OC(F)(F)F)c(F)c(-c2cc3cn(-c4ccc([C@H](N)CCNC(=N)N)cc4)c(=O)nc3[nH]2)c1 [Compound 443]
MIC [1, 3]: < 16 µg/mL
MIC [2, 4]: < 16 µg/mL

C[C@H](N)CCCc1cc(OC(F)(F)F)c(F)c(-c2cc3cn(-c4ccc([C@H](N)CCCNC(=N)N)cc4)c(=O)nc3[nH]2)c1 [Compound 457]
MIC [1, 3]: < 16 µg/mL
MIC [2, 4]: < 16 µg/mL

C[C@H](N)CCCc1cc(Cl)c(F)c(-c2cc3cn(-c4ccc([C@@H]5CC(CCNC(=N)N)CN5)cc4)c(=O)nc3[nH]2)c1 (some centres unmarked) [Compound 405]
MIC [1, 3]: < 16 µg/mL
MIC [2, 4]: < 16 µg/mL

C[C@H](N)CCCc1cc(OC(F)(F)F)c(F)c(-c2cc3cn(-c4ccc(C(CO)CNC(=N)N)cc4)c(=O)nc3[nH]2)c1 (some centres unmarked) [Compound 480]
MIC [1, 3]: < 16 µg/mL
MIC [2, 4]: < 16 µg/mL

C[C@H](N)CCCc1cc(Cl)c(F)c(-c2cc3cn(-c4ccc(CN[C@@H](C)C[C@@H](CO)NC(=N)N)cc4)c(=O)nc3[nH]2)c1 [Compound 436]
MIC [1, 3]: < 16 µg/mL
MIC [2, 4]: < 16 µg/mL

C[C@H](N)CCCc1cc(Cl)c(F)c(-c2cc3cn(-c4ccc([C@@H]5CCC[C@@H](CCc6c[nH]cn6)N5)cc4)c(=O)nc3[nH]2)c1 [Compound 549]
MIC [1, 3]: < 16 µg/mL
MIC [2, 4]: < 16 µg/mL

C[C@H](N)CCCc1cc(Cl)c(F)c(-c2cc3cn(-c4ccc([C@@H]5COC[C@@H](CN)N5)cc4)c(=O)nc3[nH]2)c1 [Compound 464]
MIC [1, 3]: < 16 µg/mL
MIC [2, 4]: < 16 µg/mL

C=C[C@@H]1COC[C@H](c2ccc(-n3cc4cc(-c5cc(CCC[C@H](C)N)cc(Cl)c5F)[nH]c4nc3=O)cc2)N1 [Compound 374]
MIC [1, 3]: > 16 µg/mL
MIC [2, 4]: > 16 µg/mL

C[C@@H](CN)CN1CC[C@@H](c2cc3cn(-c4ccc(CNCCCNC(=N)N)cc4)c(=O)nc3[nH]2)C1 [Compound 569]
MIC [1, 3]: < 16 µg/mL
MIC [2, 4]: < 16 µg/mL

C[C@H](N)CCCc1cc(Cl)c(F)c(-c2cc3cn(-c4ccc([C@H]5CCC[C@H](CCNC6=NCCN6)N5)cc4)c(=O)nc3[nH]2)c1 [Compound 541]
MIC [1, 3]: < 16 µg/mL
MIC [2, 4]: < 16 µg/mL

C[C@H](N)CCCc1cc(Cl)c(F)c(-c2cc3cn(-c4ccc(CN[C@@H](C)C[C@@H](CCO)NC(=N)N)cc4)c(=O)nc3[nH]2)c1 [Compound 359]
MIC [1, 3]: < 16 µg/mL
MIC [2, 4]: < 16 µg/mL

C[C@H](NCCCNC(=N)N)c1ccc(-n2cc3cc(-c4cc(CCC[C@@H](N)COC(=O)Cc5ccccc5)cc(Cl)c4F)[nH]c3nc2=O)cc1 [Compound 331]
MIC [1, 3]: < 16 µg/mL
MIC [2, 4]: < 16 µg/mL

C[C@H](N)CCCc1cc(Cl)c(F)c(-c2cc3cn(-c4ccc([C@@H]5CCC[C@@H](CCn6cnc([N+](=O)[O-])c6)N5)cc4)c(=O)nc3[nH]2)c1 [Compound 548]
MIC [1, 3]: > 16 µg/mL
MIC [2, 4]: < 16 µg/mL

C[C@H](N)CCCc1cc(Cl)c(F)c(-c2cc3cn(-c4ccc(C(=N)NCCCNC(=N)N)cc4)c(=O)nc3[nH]2)c1 [Compound 477]
MIC [1, 3]: < 16 µg/mL
MIC [2, 4]: < 16 µg/mL

CC(=O)NCC[C@@H]1CCC[C@@H](c2ccc(-n3cc4cc(-c5cc(CCC[C@H](C)N)cc(Cl)c5F)[nH]c4nc3=O)cc2)N1 [Compound 501]
MIC [1, 3]: > 16 µg/mL
MIC [2, 4]: > 16 µg/mL
